Source: PubChem BioAssay AID330 (DTP/NCI, 2004)
Values joined by “and” are separate entries in the source; they are usually repeats but may differ in a detail not shown here. Identical values can stand only once. Toxic doses and inconclusive results are not listed.

Test system: P388 leukemia ip, CD2F1 mice, survival T/C
Test: NCI In Vivo Anticancer Drug Screen. Data for tumor model P388 Leukemia (intraperitoneal) in CD2F1 (CDF1) mice
Details: endpoint: median survival time, higher = longer survival
How it was run: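 Mice carrying the transplanted tumor received test compound or vehicle. Survival was recorded in each group, and the value is the treated-group measurement divided by that of the vehicle-treated control group.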

[1] = dose: 12.5 mg/kg/injection, schedule: Q01DX009 (ip), vehicle: saline
[2] = dose: 25.0 mg/kg/injection, schedule: Q01DX009 (ip), vehicle: saline
[3] = dose: 25.0 mg/kg/injection, schedule: Q01DX009 (ip), vehicle: saline with Tween-80
[4] = dose: 50.0 mg/kg/injection, schedule: Q01DX009 (ip), vehicle: saline with Tween-80
[5] = dose: 50.0 mg/kg/injection, schedule: Q01DX009 (ip), vehicle: saline
[6] = dose: 100.0 mg/kg/injection, schedule: Q01DX009 (ip), vehicle: saline
[7] = dose: 200.0 mg/kg/injection, schedule: Q01DX009 (ip), vehicle: saline
[8] = dose: 100.0 mg/kg/injection, schedule: Q01DX009 (ip), vehicle: saline with Tween-80
[9] = dose: 200.0 mg/kg/injection, schedule: Q01DX009 (ip), vehicle: saline with Tween-80
[10] = dose: 60.0 mg/kg/injection, schedule: Q01DX005 (ip), vehicle: Klucel (hydroxypropylcellulose) (HPC)
[11] = dose: 120.0 mg/kg/injection, schedule: Q01DX005 (ip), vehicle: Klucel (hydroxypropylcellulose) (HPC)
[12] = dose: 240.0 mg/kg/injection, schedule: Q01DX005 (ip), vehicle: Klucel (hydroxypropylcellulose) (HPC)
[13] = dose: 50.0 mg/kg/injection, schedule: Q01DX005 (ip), vehicle: saline with Tween-80
[14] = dose: 100.0 mg/kg/injection, schedule: Q01DX005 (ip), vehicle: saline with Tween-80
[15] = dose: 6.25 mg/kg/injection, schedule: Q01DX009 (ip), vehicle: saline

## CNC(=O)n1cccc(OC)c1=O
[1]
  T/C: 102 % of control and 107 % of control
[2]
  T/C: 100 % of control and 111 % of control

## COc1cc(C(=O)OC2c3ccccc3CCC2N(C)C)cc(OC)c1OC (stereo unspecified)
[3]
  T/C: 98 % of control
[4]
  T/C: 91 % of control

## CC1C(=O)C(C)C(c2ccc(Cl)cc2)OC1c1ccc(Cl)cc1 (stereo unspecified)
[5]
  T/C: 112 % of control
[6]
  T/C: 103 % of control
[7]
  T/C: 114 % of control

## CCNC(=O)Oc1ccc[nH]c1=O
dose: 25.0 mg/kg/injection, schedule: Q01DX009 (sc), vehicle: water
  T/C: 100 % of control and 103 % of control
[5]
  T/C: 111 % of control and 114 % of control
dose: 50.0 mg/kg/injection, schedule: Q01DX009 (sc), vehicle: water
  T/C: 104 % of control and 109 % of control
[6]
  T/C: 122 % of control
dose: 100.0 mg/kg/injection, schedule: Q01DX009 (sc), vehicle: water
  T/C: 106 % of control and 109 % of control
[7]
  T/C: 118 % of control
dose: 200.0 mg/kg/injection, schedule: Q01DX009 (sc), vehicle: water
  T/C: 108 % of control and 118 % of control
dose: 400.0 mg/kg/injection, schedule: Q01DX009 (ip), vehicle: saline
  T/C: 119 % of control
dose: 400.0 mg/kg/injection, schedule: Q01DX009 (sc), vehicle: water
  T/C: 113 % of control

## Cc1ncc(C(N)=O)c(N)n1
[4]
  T/C: 103 % of control
[8]
  T/C: 104 % of control
[9]
  T/C: 104 % of control

## Cl[Si]1(Cl)CCCC1
dose: 50.0 mg/kg/injection, schedule: Q01DX009 (ip), vehicle: other
  T/C: 99 % of control
dose: 100.0 mg/kg/injection, schedule: Q01DX009 (ip), vehicle: other
  T/C: 100 % of control
dose: 200.0 mg/kg/injection, schedule: Q01DX009 (ip), vehicle: other
  T/C: 99 % of control

## CN1C2=CC3(OC2C(C)(C)c2ccccc21)N(C)c1ccccc1C3(C)C (stereo unspecified)
[10]
  T/C: 93 % of control
[11]
  T/C: 92 % of control
[12]
  T/C: 93 % of control

## O=C1CCSC(=S)N1c1ccc(Cl)c([N+](=O)[O-])c1
[3]
  T/C: 87 % of control
[2]
  T/C: 97 % of control
[4]
  T/C: 88 % of control
[5]
  T/C: 104 % of control
dose: 50.0 mg/kg/injection, schedule: Q01DX009 (ip), vehicle: suspension in saline
  T/C: 103 % of control
[8]
  T/C: 98 % of control
[6]
  T/C: 97 % of control
dose: 100.0 mg/kg/injection, schedule: Q01DX009 (ip), vehicle: suspension in saline
  T/C: 109 % of control
[9]
  T/C: 115 % of control
[7]
  T/C: 97 % of control

## Cc1cc(NCCCCN2CCOCC2)nc2ccc3ccccc3c12
[13]
  T/C: 101 % of control
[14]
  T/C: 105 % of control

## O=C(O)/C(Cl)=C(\Cl)C(=O)Nc1ccccc1C(F)(F)F
[13]
  T/C: 97 % of control
[14]
  T/C: 103 % of control

## O=c1[nH]c(=O)n(C2OC(CO)C(O)C2O)cc1N1CCOCC1 (stereo unspecified)
dose: 50.0 mg/kg/injection, schedule: Q01DX005 (ip), vehicle: saline
  T/C: 100 % of control
dose: 100.0 mg/kg/injection, schedule: Q01DX005 (ip), vehicle: saline
  T/C: 100 % of control
dose: 200.0 mg/kg/injection, schedule: Q01DX005 (ip), vehicle: saline
  T/C: 98 % of control

## COC(=O)c1cccc(OCC(=O)Nc2ccccc2)c1
dose: 100.0 mg/kg/injection, schedule: Q01DX001 (ip), vehicle: saline with Tween-80
  T/C: 100 % of control
dose: 200.0 mg/kg/injection, schedule: Q01DX001 (ip), vehicle: saline with Tween-80
  T/C: 100 % of control
dose: 400.0 mg/kg/injection, schedule: Q01DX001 (ip), vehicle: saline with Tween-80
  T/C: 90 % of control

## CSC1C(=O)N2CCCc3cccc1c32 (stereo unspecified)
dose: 60.0 mg/kg/injection, schedule: Q01DX005 (ip), vehicle: saline with Tween-80
  T/C: 105 % of control
dose: 120.0 mg/kg/injection, schedule: Q01DX005 (ip), vehicle: saline with Tween-80
  T/C: 96 % of control
dose: 240.0 mg/kg/injection, schedule: Q01DX005 (ip), vehicle: saline with Tween-80
  T/C: 96 % of control

## C1CN(P2(N3CC3)=NP(N3CC3)(N3CC3)=NP(N3CC3)(N3CC3)=N2)CCO1 (stereo unspecified)
dose: 3.13 mg/kg/injection, schedule: Q01DX009 (ip), vehicle: saline
  T/C: 123 % of control
dose: 4.0 mg/kg/injection, schedule: Q01DX009 (ip), vehicle: saline
  T/C: 161 % of control
[15]
  T/C: 157 % of control
dose: 8.0 mg/kg/injection, schedule: Q01DX009 (ip), vehicle: saline
  T/C: 212 % of control
[1]
  T/C: 183 % of control
dose: 16.0 mg/kg/injection, schedule: Q01DX009 (ip), vehicle: saline
  T/C: 174 % of control
[2]
  T/C: 215 % of control
dose: 32.0 mg/kg/injection, schedule: Q01DX009 (ip), vehicle: saline
  T/C: 235 % of control
[5]
  T/C: 104 % of control
dose: 64.0 mg/kg/injection, schedule: Q01DX009 (ip), vehicle: saline
  T/C: 108 % of control
[6]
  T/C: 86 % of control

## Cc1cc2c(cc1C)NC(c1ccc(C(N)=S)cc1)N2
dose: 100.0 mg/kg/injection, schedule: Q04DX002 (ip), vehicle: saline with Tween-80
  T/C: 92 % of control
dose: 200.0 mg/kg/injection, schedule: Q04DX002 (ip), vehicle: saline with Tween-80
  T/C: 86 % of control

## O=C(O)CCC(=O)NCCNC(=O)CCC(=O)O
[5]
  T/C: 101 % of control
[6]
  T/C: 101 % of control
[7]
  T/C: 104 % of control

## O=S1(=O)Cc2ccccc21
dose: 100.0 mg/kg/injection, schedule: Q01DX001 (ip), vehicle: Klucel (hydroxypropylcellulose) (HPC)
  T/C: 92 % of control
dose: 200.0 mg/kg/injection, schedule: Q01DX001 (ip), vehicle: Klucel (hydroxypropylcellulose) (HPC)
  T/C: 98 % of control

## COC(=O)c1cc(Cl)ccc1OS(N)(=O)=O
[10]
  T/C: 103 % of control
[11]
  T/C: 102 % of control
[12]
  T/C: 97 % of control

## C=CC1(O)Cc2cc(C(C)C)c(OC)c(OC)c21 (stereo unspecified)
[13]
  T/C: 106 % of control
[14]
  T/C: 119 % of control
dose: 200.0 mg/kg/injection, schedule: Q01DX005 (ip), vehicle: saline with Tween-80
  T/C: 109 % of control

## CC(=NCc1ccccc1)/C(=N\O)C(=O)Nc1ccc(Cl)cc1
dose: 400.0 mg/kg/injection, schedule: Q04DX003 (ip), vehicle: saline with Tween-80
  T/C: 96 % of control

## CCCCCc1nc2c(c3c1CCCC3)CCCC2
dose: 60.0 mg/kg/injection, schedule: Q01DX005 (ip), vehicle: saline
  T/C: 98 % of control
dose: 120.0 mg/kg/injection, schedule: Q01DX005 (ip), vehicle: saline
  T/C: 106 % of control
dose: 240.0 mg/kg/injection, schedule: Q01DX005 (ip), vehicle: saline
  T/C: 107 % of control

## CC(C)[C@@H](C)/C=C/[C@@H](C)[C@H]1CC[C@@H]2[C@]1(C)CC[C@H]1[C@]23C=C[C@]2(C[C@@H](O)CC[C@]12C)OO3
dose: 3.75 mg/kg/injection, schedule: Q01DX005 (ip), vehicle: Klucel (hydroxypropylcellulose) (HPC)
  T/C: 93 % of control
dose: 7.5 mg/kg/injection, schedule: Q01DX005 (ip), vehicle: Klucel (hydroxypropylcellulose) (HPC)
  T/C: 93 % of control
dose: 15.0 mg/kg/injection, schedule: Q01DX005 (ip), vehicle: Klucel (hydroxypropylcellulose) (HPC)
  T/C: 86 % of control
dose: 25.0 mg/kg/injection, schedule: Q01DX005 (ip), vehicle: Klucel (hydroxypropylcellulose) (HPC)
  T/C: 90 % of control
dose: 30.0 mg/kg/injection, schedule: Q01DX005 (ip), vehicle: Klucel (hydroxypropylcellulose) (HPC)
  T/C: 90 % of control
dose: 50.0 mg/kg/injection, schedule: Q01DX005 (ip), vehicle: Klucel (hydroxypropylcellulose) (HPC)
  T/C: 89 % of control
dose: 100.0 mg/kg/injection, schedule: Q01DX005 (ip), vehicle: Klucel (hydroxypropylcellulose) (HPC)
  T/C: 86 % of control
dose: 200.0 mg/kg/injection, schedule: Q01DX005 (ip), vehicle: Klucel (hydroxypropylcellulose) (HPC)
  T/C: 98 % of control

## CC(CNCCN)C[Si](C)(C)C (stereo unspecified)
[15]
  T/C: 95 % of control
[1]
  T/C: 87 % of control
[2]
  T/C: 95 % of control

## NC1=C(N2CC2)C(=O)C(N)=C(N2CC2)C1=O
dose: 0.05 mg/kg/injection, schedule: Q01DX009 (ip), vehicle: saline
  T/C: 177 % of control
dose: 0.1 mg/kg/injection, schedule: Q01DX009 (ip), vehicle: saline
  T/C: 187 % of control and 223 % of control
dose: 0.2 mg/kg/injection, schedule: Q01DX009 (ip), vehicle: saline
  T/C: 256 % of control
dose: 0.3 mg/kg/injection, schedule: Q01DX009 (ip), vehicle: saline
  T/C: 225 % of control

## COc1cc2c3c(c1OC)-c1[nH]c4ccccc4c1C1CCCN(CC2)C31 (stereo unspecified)
[10]
  T/C: 95 % of control
[11]
  T/C: 96 % of control
[12]
  T/C: 98 % of control

## NCCC(=O)NCCSSCCNC(=O)CCN
dose: 100.0 mg/kg/injection, schedule: Q04DX003 (ip), vehicle: saline
  T/C: 112 % of control
dose: 200.0 mg/kg/injection, schedule: Q04DX003 (ip), vehicle: saline
  T/C: 111 % of control
